pIC50: −log10 of the molar value.
Target: T1, human ENT1 (Homo sapiens, UniProt Q99808)
T1 construct: JAR cells expressing ENT1 were purchased from ATCC; host or cells: JAR cells
T1 sequence (Q99808 1-456): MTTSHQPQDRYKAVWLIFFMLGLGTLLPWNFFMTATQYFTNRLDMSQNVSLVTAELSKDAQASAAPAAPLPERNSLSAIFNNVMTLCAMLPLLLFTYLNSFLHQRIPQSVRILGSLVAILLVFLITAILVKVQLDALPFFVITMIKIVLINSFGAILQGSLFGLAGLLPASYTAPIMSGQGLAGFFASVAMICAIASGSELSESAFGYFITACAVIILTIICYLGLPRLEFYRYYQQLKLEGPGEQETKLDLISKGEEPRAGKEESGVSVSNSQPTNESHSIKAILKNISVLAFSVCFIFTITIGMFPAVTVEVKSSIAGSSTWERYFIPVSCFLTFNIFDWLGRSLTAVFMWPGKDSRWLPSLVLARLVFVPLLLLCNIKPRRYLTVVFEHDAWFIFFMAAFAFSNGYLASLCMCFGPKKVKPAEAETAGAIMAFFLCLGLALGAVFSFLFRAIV
Assay: ENT1 binding assay (competition with Sahenta-DY647 on JAR cells)
Settings: competition with SAHENTA-DY647 binding; IC50 categorized; read-out: Binding Assay IC50
Procedure, shortened: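 Whole-cell competition on JAR cells (native ENT1): 50,000 cells pre-incubated 30 min at 4 °C with compound in HBSS/10 mM Hepes/0.1% BSA, then 100 nM Sahenta-DY647 added for 30 min at 4 °C. After washing, fluorescence (Ex 630/Em 670 nm) read; IC50 from sigmoidal fit, averaged as pIC50.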

Row | Compound | pIC50
1 | C[C@H]1O[C@@H](n2cnc3c(C4CCc5ccc([N+](=O)[O-])cc5C4)ncnc32)[C@H](O)[C@@H]1O (some centres unmarked) [Compound 227] | < 6.30
2 | C[C@H]1O[C@@H](n2c(NCc3cnn(C)c3)nc3c(N4CCc5ccc([N+](=O)[O-])cc5C4)ncnc32)[C@H](O)[C@@H]1O [Compound 138] | > 9.00
3 | COc1cc(COc2ncnc3c2ncn3[C@@H]2O[C@H](C)[C@@H](O)[C@H]2O)cc(OC)c1OC [Compound 382] | < 6.30
4 | C[C@H]1O[C@@H](n2cnc3c(OCCc4ccc(CF)cc4)ncnc32)[C@H](O)[C@@H]1O [Compound 294] | < 6.30
5 | C[C@H]1O[C@@H](n2cnc3c(NCc4cccc(C(F)F)c4)ncnc32)[C@H](O)[C@@H]1O [Compound 318] | < 6.30
6 | C[C@H]1O[C@@H](n2ccc3c(SCc4ccc([N+](=O)[O-])cc4)ncnc32)[C@H](O)[C@@H]1O [Compound 197] | 6.30 to 7.70
7 | C[C@H]1O[C@@H](n2cnc3c(NCc4ccc(Cl)c(Cl)c4)ncnc32)[C@H](O)[C@@H]1O [Compound 254] | < 6.30
8 | Cc1cc(CSc2ncnc3c2ncn3[C@@H]2O[C@H](C)[C@@H](O)[C@H]2O)n(C)n1 [Compound 289] | < 6.30
9 | C[C@H]1O[C@@H](n2c(N[C@H]3CC[C@@](C)(O)CC3)nc3c(OCc4ccc(Cl)cc4)ncnc32)[C@H](O)[C@@H]1O [Compound 128] | 7.70 to 9.00
10 | C[C@H]1O[C@@H](n2c(C(=O)NC3CCCC3)nc3c(OCc4ccc([N+](=O)[O-])cc4)ncnc32)[C@H](O)[C@@H]1O [Compound 3] | 6.30 to 7.70
11 | C[C@H]1O[C@@H](n2c(NCC3CCOCC3)nc3c(OCc4ccc(Cl)cc4)ncnc32)[C@H](O)[C@@H]1O [Compound 111] | 6.30 to 7.70
12 | C[C@H]1O[C@@H](n2cnc3c(OCc4cccc(OC(F)F)c4)ncnc32)[C@H](O)[C@@H]1O [Compound 246] | < 6.30
13 | C[C@H]1O[C@@H](n2cnc3c(SCc4nc(-c5ccccc5Cl)no4)ncnc32)[C@H](O)[C@@H]1O [Compound 310] | < 6.30
14 | C[C@H]1O[C@@H](n2cnc3c(OCCc4ccc(OC(F)F)nc4)ncnc32)[C@H](O)[C@@H]1O [Compound 278] | < 6.30
15 | C[C@H]1O[C@@H](n2cnc3c(NCc4cccc(-c5ncco5)c4)ncnc32)[C@H](O)[C@@H]1O [Compound 380] | < 6.30
16 | CNC(=O)[C@H]1O[C@@H](n2cnc3c(OCc4ccc([N+](=O)[O-])cc4)ncnc32)[C@H](O)[C@@H]1O [Compound 279] | < 6.30

Row | Compound | pIC50
17 | C[C@H]1O[C@@H](n2cnc3c(OCc4ccc(C(F)(F)F)cc4Cl)ncnc32)[C@H](O)[C@@H]1O [Compound 307] | < 6.30
18 | CN(C)C(=O)[C@H]1O[C@@H](n2cnc3c(OCc4ccc([N+](=O)[O-])cc4)ncnc32)[C@H](O)[C@@H]1O [Compound 329] | < 6.30
19 | C[C@H]1O[C@@H](n2cnc3c(SCc4ccc5ccccc5n4)ncnc32)[C@H](O)[C@@H]1O [Compound 342] | < 6.30
20 | C[C@H]1O[C@@H](n2cnc3c(C4=Cc5cc([N+](=O)[O-])ccc5CC4)ncnc32)[C@H](O)[C@@H]1O [Compound 192] | 6.30 to 7.70
21 | C[C@H]1O[C@@H](n2cnc3c(OCc4ccc(Cl)c(C(F)(F)F)c4)ncnc32)[C@H](O)[C@@H]1O [Compound 250] | < 6.30
22 | C[C@H]1O[C@@H](n2cnc3c(NCc4cccc(C(=O)N(C)C)c4)ncnc32)[C@H](O)[C@@H]1O [Compound 379] | < 6.30
23 | C[C@H]1O[C@@H](n2c(NCC3CCC(F)(F)CC3)nc3c(OCc4ccc(C#N)cc4)ncnc32)[C@H](O)[C@@H]1O [Compound 106] | 7.70 to 9.00
24 | C[C@H]1O[C@@H](n2cnc3c(N(C)CCc4ccc([N+](=O)[O-])cc4)ncnc32)[C@H](O)[C@@H]1O [Compound 324] | < 6.30
25 | CC(CCO)Nc1nc2c(OCc3ccc(F)cc3)ncnc2n1[C@@H]1O[C@H](C)[C@@H](O)[C@H]1O (some centres unmarked) [Compound 98] | 7.70 to 9.00
26 | Cc1noc(CSc2ncnc3c2ncn3[C@@H]2O[C@H](C)[C@@H](O)[C@H]2O)n1 [Compound 397] | < 6.30
27 | C[C@H]1O[C@@H](n2c(NC3CCC(O)CC3)nc3c(N4CCc5ccc([N+](=O)[O-])cc5C4)ncnc32)[C@H](O)[C@@H]1O (some centres unmarked) [Compound 140] | > 9.00
28 | O=[N+]([O-])c1ccc(COc2ncnc3c2ncn3[C@@H]2O[C@H](CCO)[C@@H](O)[C@H]2O)cc1 [Compound 229] | < 6.30
29 | C[C@H]1O[C@@H](n2cnc3c(SCc4cscn4)ncnc32)[C@H](O)[C@@H]1O [Compound 300] | < 6.30
30 | C[C@H]1O[C@@H](n2c(N)nc3c(OCCc4ccc([N+](=O)[O-])cc4)ncnc32)[C@H](O)[C@@H]1O [Compound 215] | 6.30 to 7.70
31 | C[C@H]1O[C@@H](n2c(N[C@H]3CC[C@@](C)(O)CC3)nc3c(N4CCc5ccc([N+](=O)[O-])cc5C4)ncnc32)[C@H](O)[C@@H]1O [Compound 139] | > 9.00

Now from value to molecule:

Row | pIC50 | Compound
32 | < 6.30 | CC(NC(=O)c1ncnc2c1ncn2[C@@H]1O[C@H](C)[C@@H](O)[C@H]1O)c1ccc([N+](=O)[O-])cc1 (some centres unmarked) [Compound 305]
33 | 6.30 to 7.70 | C[C@H]1O[C@@H](n2c(N[C@H]3CC[C@@H](O)CC3)nc3c(N4CCc5ccccc5C4)ncnc32)[C@H](O)[C@@H]1O [Compound 195]
34 | < 6.30 | C[C@H]1O[C@@H](n2cnc3c(C(=O)N(C)Cc4ccc([N+](=O)[O-])cc4)ncnc32)[C@H](O)[C@@H]1O [Compound 406]
35 | < 6.30 | Cc1c(N[C@@H]2O[C@H](C)[C@@H](O)[C@H]2O)ncnc1OCCc1ccc([N+](=O)[O-])cc1 [Compound 345]
36 | < 6.30 | C[C@H]1OC(n2cnc3c(COc4ccc(C#N)c(F)c4)ncnc32)[C@H](O)[C@@H]1O (some centres unmarked) [Compound 258]
37 | < 6.30 | C[C@H]1O[C@@H](n2cnc3c(OC4CCc5ccc([N+](=O)[O-])cc5C4)ncnc32)[C@H](O)[C@@H]1O (some centres unmarked) [Compound 228]
38 | 7.70 to 9.00 | COc1ncc(CNc2nc3c(OCc4ccc(C#N)cc4)ncnc3n2[C@@H]2O[C@H](C)[C@@H](O)[C@H]2O)cn1 [Compound 72]
39 | > 9.00 | C[C@H]1O[C@@H](n2c(N[C@H]3C[C@H](O)C3)nc3c(OCc4ccc(C#N)cc4)ncnc32)[C@H](O)[C@@H]1O [Compound 50]
40 | 6.30 to 7.70 | O=[N+]([O-])c1ccc(COc2ncnc3c2ncn3[C@@H]2O[C@H](COCCO)[C@@H](O)[C@H]2O)cc1 [Compound 191]
41 | < 6.30 | C[C@H]1O[C@@H](n2cnc3c(NC(=O)c4ccc([N+](=O)[O-])cc4)ncnc32)[C@H](O)[C@@H]1O [Compound 412]
42 | < 6.30 | C[C@H]1O[C@@H](n2cnc3c(N4CCN(c5ccc([N+](=O)[O-])cc5)CC4)ncnc32)[C@H](O)[C@@H]1O [Compound 299]
43 | < 6.30 | C[C@H]1O[C@@H](n2cnc3c(NCc4ccc(OCCN(C)C)cc4)ncnc32)[C@H](O)[C@@H]1O [Compound 388]
44 | < 6.30 | COc1ccc(COc2ncnc3c2ncn3[C@@H]2O[C@H](C)[C@@H](O)[C@H]2O)cc1 [Compound 231]
45 | < 6.30 | C[C@H]1O[C@@H](n2cnc3c(OCCc4cc(F)c(Cl)c(F)c4)ncnc32)[C@H](O)[C@@H]1O [Compound 268]
46 | < 6.30 | C[C@H]1O[C@@H](n2cnc3c(SCc4ccccc4S(N)(=O)=O)ncnc32)[C@H](O)[C@@H]1O [Compound 242]
47 | 6.30 to 7.70 | C[C@H]1O[C@@H](n2cnc3c(N4CC(c5ccc([N+](=O)[O-])cc5)C4)ncnc32)[C@H](O)[C@@H]1O [Compound 209]
48 | < 6.30 | C[C@H]1O[C@@H](n2cnc3c(C(=O)N4CCC4c4ccccc4)ncnc32)[C@H](O)[C@@H]1O (some centres unmarked) [Compound 422]
49 | 6.30 to 7.70 | C[C@H]1O[C@@H](n2c(NCCO)nc3c(N4CCc5ccc(C#N)cc5C4)ncnc32)[C@H](O)[C@@H]1O [Compound 167]
50 | < 6.30 | O=C(NCCO)[C@H]1O[C@@H](n2cnc3c(OCc4ccc([N+](=O)[O-])cc4)ncnc32)[C@H](O)[C@@H]1O [Compound 271]
51 | < 6.30 | C[C@H]1O[C@@H](n2cnc3c(OCc4ccccc4C(F)(F)F)ncnc32)[C@H](O)[C@@H]1O [Compound 323]
52 | < 6.30 | O=[N+]([O-])c1ccc(COc2ncnc3c2ncn3[C@@H]2O[C@H](CO)[C@@H](O)C2(F)F)cc1 [Compound 220]
53 | 6.30 to 7.70 | C[C@H]1O[C@@H](n2c(NC3CCS(=O)(=O)CC3)nc3c(N4CCc5ccccc5C4)ncnc32)[C@H](O)[C@@H]1O [Compound 181]
54 | < 6.30 | C[C@H]1O[C@@H](n2cnc3c(-c4cn(-c5ccc([N+](=O)[O-])cc5)nn4)ncnc32)[C@H](O)[C@@H]1O [Compound 368]
55 | < 6.30 | C[C@H]1O[C@@H](n2cnc3c(C(=O)N4CCCC4c4ccccc4)ncnc32)[C@H](O)[C@@H]1O (some centres unmarked) [Compound 253]
56 | 7.70 to 9.00 | C[C@H]1O[C@@H](n2c(NC3CCC(O)C3)nc3c(OCc4ccc(F)cc4)ncnc32)[C@H](O)[C@@H]1O (some centres unmarked) [Compound 102]
57 | < 6.30 | C[C@H]1O[C@@H](n2cnc3c(OCCc4cnc(CF)nc4)ncnc32)[C@H](O)[C@@H]1O [Compound 403]
58 | < 6.30 | C[C@H]1O[C@@H](n2c(N(C)C3CCCC3)nc3c(OCc4ccc([N+](=O)[O-])cc4)ncnc32)[C@H](O)[C@@H]1O [Compound 1]
59 | 6.30 to 7.70 | C[C@H]1O[C@@H](n2c(N[C@H]3CC[C@H](O)CC3)nc3c(N4CCc5ccccc5C4)ncnc32)[C@H](O)[C@@H]1O [Compound 171]

— US20260184712A1, “Heterocyclic Compounds as ENT Inhibitors and Compounds for Use in the Treatment of Cancers” (iTeos Belgium SA, priority 2022, published 2026)
